Measured values published in patent publication US8450070B2, “Method for screening of cell-protecting agent” (Takeda Pharmaceutical Company Limited, priority 2007, dated 2013).

Assays:
Hsp70 = Hsp70 expression-inducing activity in the presence of IL-1β stimulation (western blotting); type: cell-based; details: human normal articular chondrocytes, 10 ng/ml IL-1β, 2 days; FIG. 3
Procedure: In an embodiment of the step (2), the heat shock protein expression-inducing activity of a test compound was measured using a cell capable of expressing a heat shock protein. Hsp70 was used as the heat shock protein.
Human normal articular chondrocytes (manufactured by Clonetics Corporation) were grown by monolayer culture in a growth medium for articular chondrocytes (CGM, manufactured by Clonetics Corporation) and then suspended to 2.2×10^4 cells/ml in a 1:1 mixture of Dulbecco's modified Eagle's medium/Ham F12 medium. The cell culture was inoculated into a 12-well plate (manufactured by Asahi Techno Glass Corporation) by 3 ml per each well, followed by incubation at 37° C. for a day under 5% CO2. […]
After completion of the electrophoresis, the proteins in the gel were adsorbed onto a nitrocellulose membrane (Hybond-ECL; manufactured by Amersham Pharmacia Biotech Inc.) using HorizBlot (manufactured by Atto Co.). Each protein level was measured by western blotting using anti-Hsp70 antibody (manufactured by Transduction Laboratories) or anti-β-actin antibody (manufactured by Sigma, Inc.) as a primary antibody and horseradish peroxidase-labeled anti-mouse IgG antibody (manufactured by Kirkegaard & Perry Laboratories) as a secondary antibody. β-Actin was used to verify adsorption of the proteins onto the nitrocellulose membrane.

[1] = test system: human normal articular chondrocytes; assay: Cytotoxicity (cell viability, WST-8); type: cell-based; details: for cell viability (WST-8): 2 days, FIG. 7
Procedure: First, human normal articular chondrocytes were suspended to 5×10^4 cells/ml in a growth medium for articular chondrocytes. The cell culture was inoculated into a 96-well plate, followed by incubation at 37° C. for a day under 5% CO2. The test compound was added to the medium, followed by incubation at 37° C. for further 2 days under 5% CO2.

[2] = test system: human normal articular chondrocytes; assay: Cell protecting activity against NOR3-induced apoptosis (MTT); type: cell-based; details: 10 ng/ml IL-1β, 110 μM NOR3, human normal articular chondrocytes; FIG. 6
Procedure: First, human normal articular chondrocytes were suspended to 4×10^4 cells/ml in a growth medium for articular chondrocytes. The cell culture was inoculated into a 96-well plate, followed by incubation at 37° C. for a day under 5% CO2. The medium was exchanged to a 1:1 mixture of Dulbecco's modified Eagle's medium/Ham F12 medium. The test compound and 10 ng/ml of […] were added to the medium, followed by further incubation at 37° C. for a day under 5% CO2. Next, 110 μM nitrogen monoxide-releasing reagent, i.e., (±)-(E)-4-ethyl-2-[(E)-hydroximino]-5-nitro-3-hexenamide (NOR3; manufactured by Dojindo) was added and the mixture was incubated for a day to induce apoptosis of the cells. After completion of the incubation, a viability of the cells was determined using 3-(4,5-dimethylthiazol-2-yl)-2,5-diphenyltetrazorium bromide (MTT; manufactured by Dojindo). […] Compound A was verified to have an excellent cell protecting activity.

His-hHsp90α = biological target: T1, His-hHsp90α (Homo sapiens, UniProt P07900); assay: Inhibition of binding of His-hHsp90α to immobilized Compound B (SDS-PAGE, silver stain); details: various concentrations of test compound; FIG. 1
T1 construct: the Hsp90α coding region was amplified from a human skeletal complementary DNA (cDNA) library; His tag (N); made in house; host or cells: Escherichia coli BL21 (DE3), plasmid pET28b-hHsp90α
Procedure: In an embodiment of the step (1) in the screening method of the invention, the steps of measuring and comparing (i) the binding level of an immobilized imidazothiazine derivative to Hsp90 in the absence of a test compound and (ii) the binding level of an immobilized imidazothiazine derivative to Hsp90 in the presence of a test compound, were performed as follows.
Purified human Hsp90α protein (His-hHsp90α) tagged with histidine at the N terminus through using Escherichia coli was employed as Hsp90.
First, 10 μg of His-hHsp90α was reacted with a test compound of various concentrations in 0.2 ml of a binding buffer (10 mM Tris-HCl, pH 7.5, 20% glycerol, 1 mM EDTA, 500 mM NaCl and 1 mM DTT) containing 0.5% DMF for 30 minutes.

Hsp90/HSF-1 complex = biological target: T2, Hsp90/HSF-1 complex (Homo sapiens, UniProt P07900); assay: Hsp90/HSF-1 complex disrupting activity (immunoprecipitation from chondrocyte lysate, western blotting); type: biochemical; details: 1 μM compound, 30 minutes, FIG. 4, lane 3
T2 construct: host or cells: human normal articular chondrocytes (lysate)
Procedure: In another embodiment of the step (2), the activity of a test compound to disrupt the Hsp90/HSF-1 complex was measured. The substance having the activity to disrupt Hsp90/HSF-1 complex is expected to show the heat shock protein expression-inducing activity.
Human normal articular chondrocytes (manufactured by Clonetics) were washed with PBS and dissolved in RIPA buffer solution (50 mM Tris-HCl, pH 8.0, 150 mM NaCl, 1% NP-40, 0.1% SDS and 0.5% deoxycholic acid) containing a proteinase inhibitor (Complete; Boehringer Mannheim). After the solution was centrifuged at 16,000×g for 10 minutes, the supernatant was used as the lysate containing the Hsp90/HSF-1 complex. […]
After completion of the electrophoresis, the proteins in the gel were adsorbed onto a nitrocellulose membrane (Hybond-ECL; manufactured by Amersham Pharmacia Biotech Inc.) using HorizBlot (manufactured by Atto Co.). Each protein level was measured by western blotting using anti-HSF-1 antibody (manufactured by StressGen) or anti-Hsp90 antibody (manufactured by Transduction Laboratories) as a primary antibody and horseradish peroxidase-labeled anti-rabbit IgG antibody (manufactured by Cell Signaling Technology) or horseradish peroxidase-labeled anti-mouse IgG antibody (manufactured by Kirkegasrd & Perry Laboratories) as a secondary antibody.

[3] = test system: Hsp90 client protein such as glucocorticoid receptor, Akt, cyclin dependent kinase 4; assay: Hsp90 client protein degradation-inducing activity (western blotting); type: cell-based, human
Procedure: Human normal articular chondrocytes were suspended to 0.5×10^5 cells/ml in a growth medium for articular chondrocytes. The cell culture was inoculated into a 6-well plate (manufactured by Falcon Co., Ltd.) by 2 ml per each well, followed by incubation at 37° C. for a day under 5% CO2. The medium was exchanged to a 1:1 mixture of Dulbecco's modified Eagle's medium/Ham F12 medium, followed by further incubation at 37° C. for a day under 5% CO2.
The test compound was added to the culture medium and the cells were further incubated for about 18 hours at 37° C. under 5% CO2. After completion of the incubation, the cells were washed once with phosphate-buffered saline (PBS) and 200 μl of a cell lysate buffer (10 mM Tris(hydroxymethyl)aminomethane, pH 7.4, 150 mM NaCl, 1 mM EDTA.2Na, 1 mM EGTA, 0.5 mM (p-aminophenyl)methanesulfonyl fluoride hydrochloride, 200 μM sodium β-glycerophosphate n-hydrate, 20 mM NaF, 2 mM sodium diphosphate decahydrate, 10 μg/ml aprotinin, 10 μg/ml leupeptin, 1% Triton X-100, 0.5% Nonidet P40, 0.1% SDS and 1 mM o-vanadate) was added thereto. After the cell debris was scraped from the plate using a cell scraper, the cell lysate buffer was recovered. The recovered cell lysate buffer was mixed with the equal volume of a sample buffer (Tris-SDS-ME Sample Buffer; manufactured by Daiichi Pure Chemicals). […]

His2-hHsp90α protein = biological target: T3, His2-hHsp90α protein (Homo sapiens, UniProt P07900); assay: Inhibition of binding of [3H]-Compound A to immobilized His2-hHsp90α (SPA beads); details: 40 nM [3H]-Compound A, various concentrations of test compound; FIG. 2
T3 construct: the hHsp90α gene was excised from pET28b-hHsp90α using the BamHI cleavage site and the Bpu1102I cleavage site; made in house; host or cells: Escherichia coli BL21 (DE3), plasmid pET15b-hHsp90α
Procedure: In another embodiment of the step (1) of the screening method according to the present invention, measuring and comparing (i) the binding level of immobilized Hsp90 to a labeled imidazothiazine derivative in the absence of a test compound and (ii) the binding level of immobilized Hsp90 to a labeled imidazothiazine derivative in the presence of a test compound were performed.
Purified human Hsp90α protein (His2-hHsp90a) tagged with histidine at the N terminus through using Escherichia coli was employed as Hsp90.
The mixture was reacted overnight at 4° C. in a 96-well LumiNunc plate (manufactured by Nunc, Inc.). The above procedure gave immobilized Hsp90 in which the His2-hHsp90α protein was bound to Ysi (2-5 μm) copper his-tag SPA beads via histidine tag.

## COC1=C2C[C@@H](C)C[C@H](OC)[C@H](O)[C@@H](C)/C=C(\C)[C@H](OC(N)=O)[C@@H](OC)/C=C\C=C(/C)C(=O)NC(=CC1=O)C2=O (relative stereo) [GA, [18S-(4E,5Z,8R*,9R*,10E,12R*,13S*,14R*,16S*)]-9-[(aminocarbonyl)oxy]-13-hydroxy-8,14,19-trimethoxy-4,10,12,16-tetramethyl-2-azabicyclo[16.3.1.]docosa-4,6,10,18,21-pentan-3,20,22-trion, reference compound]
Hsp70
  Hsp70 protein level: clearly increased
[1]; at concentrations of 30 nM or higher
  cell viability (WST-8): greatly decreased
[2]
  apoptosis / cell viability after NOR3 (MTT): decreased the cell viability

## Cc1ccc(S(=O)(=O)/N=c2\[nH]c(=O)n3c(C)c(C)sc(SCCCC(F)(F)C(F)(F)F)c2-3)cc1 [Compound A, N-[(1Z)-5,6-dimethyl-3-oxo-8-[(4,4,5,5,5-pentafluoropentyl)sulfanyl]-2,3-dihydro-1H-imidazo[5,1-c][1,4]thiazin-1-ylidene]-4-methylbenzenesulfonamide]
His-hHsp90α
  binding level of the His-hHsp90α protein to the immobilized Compound B: dose-dependently decreased
Hsp90/HSF-1 complex
  co-precipitation of HSF-1 with Hsp90 (anti-Hsp90 antibody immunoprecipitation): not observed
Hsp70
  Hsp70 protein level: clearly increased
[1]; at concentrations of 10 μM or less
  cell viability (WST-8): did not affect
[1]; ratio relative to GA
  cytotoxicity relative to that of GA: 1/300
[2]
  apoptosis / cell viability after NOR3 (MTT): dose-dependently suppressed the apoptosis
[3]; human normal articular chondrocytes, about 18 hours, at concentrations of 10 μM or less, FIG. 5
  intracellular protein level of Hsp90 client protein (glucocorticoid receptor, Akt, cyclin dependent kinase 4): did not affect
[3]; ratio relative to GA
  client protein degradation-inducing activity as compared to GA: less than 1/1000
His2-hHsp90α protein
  binding level of the His2-hHsp90α protein to [3H]-compound A: dose-dependently decreased
